Results as given in US20250213527A1, “FORMULATIONS OF PSILOCYBIN ANALOGS AND METHODS OF USE” (priority 2021, published 2025).
“Also recorded” adds a separate entry of the source.

Columns and labels:
[1] = Pharmacokinetics in male beagle dogs after oral administration by powder in capsule (PIC) or orally disintegrating tablet (ODT); details: dog, plasma, 5 mg
[2] = Plasma pharmacokinetics and bioavailability in rats, oral gavage and intravenous (bolus); details: rat plasma, Group 1, IV, psilocin + psilocin-d10 1 + 1 mg/kg; label = analyte; IAD = immediately after dosing
[3] = Psilocin-d10 pharmacokinetics in female beagle dogs, oral gavage and intravenous (bolus); details: for AUC(0-inf) / AUC(0-t) / C0 / clearance / Cmax / Tmax / Vd / half-life / bioavailability: female, beagle, dog, plasma; for AUC(0-inf): AUC0-inf; for C0: C0, female dog plasma
[4] = Stability on standing of amorphous form from DSC melt/crash cooling (XRPD); assay type: physicochemical; details: amorphous free base from melt/crash cooling (>185 °C/30 °C)
[5] = female dog plasma, single IV bolus 0.20 mg/kg, Mean (N=3)
[6] = female dog plasma, single IV bolus 0.20 mg/kg, Median (N=3)
[7] = female dog plasma, single IV bolus 0.20 mg/kg, animal 60F
[8] = female dog plasma, single IV bolus 0.20 mg/kg, animal 61F
[9] = female dog plasma, single IV bolus 0.20 mg/kg, animal 723F
[10] = female dog plasma, single oral gavage 1.00 mg/kg, Mean (N=3)
[11] = female dog plasma, single oral gavage 1.00 mg/kg, Median (N=3)
[12] = female dog plasma, single oral gavage 1.00 mg/kg, animal 60F
[13] = female dog plasma, single oral gavage 1.00 mg/kg, animal 61F
[14] = female dog plasma, single oral gavage 1.00 mg/kg, animal 723F
[15] = iv, 0.2 mg/kg, female dog plasma, single IV bolus 0.20 mg/kg, Mean (N=3)
[16] = iv, 0.2 mg/kg, female dog plasma, single IV bolus 0.20 mg/kg, animal 61F
[17] = po, 1 mg/kg, female dog plasma, single oral gavage 1.00 mg/kg, Mean (N=3)
[18] = po, 1 mg/kg, female dog plasma, single oral gavage 1.00 mg/kg, Median (N=3)
[19] = po, 1 mg/kg, female dog plasma, single oral gavage 1.00 mg/kg, animal 60F
[20] = po, 1 mg/kg, female dog plasma, single oral gavage 1.00 mg/kg, animal 61F
[21] = po, 1 mg/kg, female dog plasma, single oral gavage 1.00 mg/kg, animal 723F

[2H]C([2H])([2H])N(C([2H])([2H])[2H])C([2H])([2H])C([2H])([2H])c1c[nH]c2cccc(O)c12 [Compound I-3, 3-(2-(bis(methyl-d3)amino)ethyl-1,1,2,2-d4)-1H-indol-4-ol]
Tmax [1]: 0.5 h | Tmax ([1]; oral): 1 h | Tmax [2]: IAD | time of last detectable plasma level ([3]; dogs, oral administration): 8 h | time of peak plasma levels ([3]; dogs, oral administration): 0.5 h | DN AUC0-inf [3, 5]: 448 (h*ng/mL)/(mg/kg) | DN Cmax [3, 5]: 229 (ng/mL)/(mg/kg) | DN AUC0-inf [3, 6]: 479 (h*ng/mL)/(mg/kg) | DN Cmax [3, 6]: 230 (ng/mL)/(mg/kg) | DN AUC0-inf [3, 7]: 366 (h*ng/mL)/(mg/kg) | DN Cmax [3, 7]: 230 (ng/mL)/(mg/kg) | DN AUC0-inf [3, 8]: 479 (h*ng/mL)/(mg/kg) | DN Cmax [3, 8]: 220 (ng/mL)/(mg/kg) | DN AUC0-inf [3, 9]: 500 (h*ng/mL)/(mg/kg) | DN Cmax [3, 9]: 239 (ng/mL)/(mg/kg) | DN AUC0-inf [3, 10]: 405 (h*ng/mL)/(mg/kg) | DN Cmax [3, 10]: 146 (ng/mL)/(mg/kg) | DN AUC0-inf [3, 11]: 414 (h*ng/mL)/(mg/kg) | DN Cmax [3, 11]: 132 (ng/mL)/(mg/kg) | DN AUC0-inf [3, 12]: 374 (h*ng/mL)/(mg/kg) | DN Cmax [3, 12]: 132 (ng/mL)/(mg/kg) | DN AUC0-inf [3, 13]: 414 (h*ng/mL)/(mg/kg) | DN Cmax [3, 13]: 179 (ng/mL)/(mg/kg) | DN AUC0-inf [3, 14]: 426 (h*ng/mL)/(mg/kg) | DN Cmax [3, 14]: 126 (ng/mL)/(mg/kg) | AUC(0-inf) [3, 15]: 89.6 ng·h/mL | AUC(0-inf) ([3]; iv, 0.2 mg/kg, female dog plasma, single IV bolus 0.20 mg/kg, Median (N=3)): 95.8 ng·h/mL | AUC(0-inf) ([3]; iv, 0.2 mg/kg, female dog plasma, single IV bolus 0.20 mg/kg, animal 60F): 73.3 ng·h/mL | AUC(0-inf) [3, 16]: 95.8 ng·h/mL | AUC(0-inf) ([3]; iv, 0.2 mg/kg, female dog plasma, single IV bolus 0.20 mg/kg, animal 723F): 99.9 ng·h/mL | AUC(0-t) ([3]; iv, 0.2 mg/kg, AUC0-t, female dog plasma, single IV bolus 0.20 mg/kg, Mean (N=3)): 77.8 ng·h/mL | AUC(0-t) ([3]; iv, 0.2 mg/kg, AUC0-t, female dog plasma, single IV bolus 0.20 mg/kg, Median (N=3)): 80.7 ng·h/mL | AUC(0-t) ([3]; iv, 0.2 mg/kg, AUC0-t, female dog plasma, single IV bolus 0.20 mg/kg, animal 60F): 67 ng·h/mL | AUC(0-t) ([3]; iv, 0.2 mg/kg, AUC0-t, female dog plasma, single IV bolus 0.20 mg/kg, animal 61F): 80.7 ng·h/mL | AUC(0-t) ([3]; iv, 0.2 mg/kg, AUC0-t, female dog plasma, single IV bolus 0.20 mg/kg, animal 723F): 85.8 ng·h/mL | C0 ([3]; iv, 0.2 mg/kg, single IV bolus 0.20 mg/kg, Mean (N=3)): 57.3 ng/mL | C0 ([3]; iv, 0.2 mg/kg, single IV bolus 0.20 mg/kg, Median (N=3)): 62 ng/mL | C0 ([3]; iv, 0.2 mg/kg, single IV bolus 0.20 mg/kg, animal 60F): 69.5 ng/mL | C0 ([3]; iv, 0.2 mg/kg, single IV bolus 0.20 mg/kg, animal 61F): 40.5 ng/mL | C0 ([3]; iv, 0.2 mg/kg, single IV bolus 0.20 mg/kg, animal 723F): 62 ng/mL | clearance ([3]; iv, 0.2 mg/kg, CL, female dog plasma, single IV bolus 0.20 mg/kg, Mean (N=3)): 37.8 mL/min/kg | clearance ([3]; iv, 0.2 mg/kg, CL, female dog plasma, single IV bolus 0.20 mg/kg, animal 60F): 45.5 mL/min/kg | clearance ([3]; iv, 0.2 mg/kg, CL, female dog plasma, single IV bolus 0.20 mg/kg, animal 723F): 33.3 mL/min/kg | clearance ([3]; iv, 0.2 mg/kg, Clearance (CL), dogs): 37.8 mL/min/kg | Cmax ([3]; iv, 0.2 mg/kg, Cmax, female dog plasma, single IV bolus 0.20 mg/kg, Mean (N=3)): 45.8 ng/mL | Cmax ([3]; iv, 0.2 mg/kg, Cmax, female dog plasma, single IV bolus 0.20 mg/kg, Median (N=3)): 45.9 ng/mL | Cmax ([3]; iv, 0.2 mg/kg, Cmax, female dog plasma, single IV bolus 0.20 mg/kg, animal 60F): 45.9 ng/mL | Cmax ([3]; iv, 0.2 mg/kg, Cmax, female dog plasma, single IV bolus 0.20 mg/kg, animal 61F): 43.9 ng/mL | Cmax ([3]; iv, 0.2 mg/kg, Cmax, female dog plasma, single IV bolus 0.20 mg/kg, animal 723F): 47.7 ng/mL | Tmax [3, 15]: 0.333 h | Tmax [3, 16]: 0.5 h | Vd ([3]; iv, 0.2 mg/kg, Vss, female dog plasma, single IV bolus 0.20 mg/kg, Mean (N=3)): 4.01 L/kg | Vd ([3]; iv, 0.2 mg/kg, Vss, female dog plasma, single IV bolus 0.20 mg/kg, Median (N=3)): 3.96 L/kg | Vd ([3]; iv, 0.2 mg/kg, Vss, female dog plasma, single IV bolus 0.20 mg/kg, animal 60F): 3.96 L/kg | Vd ([3]; iv, 0.2 mg/kg, Vss, female dog plasma, single IV bolus 0.20 mg/kg, animal 61F): 4.28 L/kg | Vd ([3]; iv, 0.2 mg/kg, Vss, female dog plasma, single IV bolus 0.20 mg/kg, animal 723F): 3.79 L/kg | half-life ([3]; iv, 0.2 mg/kg, elimination half-life, dogs): 1.35 h | AUC(0-t) ([3]; iv, 0.2 mg/kg, mean AUC0-t, female dog plasma, single intravenous (bolus) dose): 77.8 ng·h/mL | Cmax ([3]; iv, 0.2 mg/kg, mean Cmax, female dog plasma, single intravenous (bolus) dose): 45.8 ng/mL | half-life ([3]; iv, 0.2 mg/kg, t1/2, female dog plasma, single IV bolus 0.20 mg/kg, Mean (N=3)): 1.37 h | half-life ([3]; iv, 0.2 mg/kg, t1/2, female dog plasma, single IV bolus 0.20 mg/kg, Median (N=3)): 1.41 h | half-life ([3]; iv, 0.2 mg/kg, t1/2, female dog plasma, single IV bolus 0.20 mg/kg, animal 60F): 1.16 h | half-life ([3]; iv, 0.2 mg/kg, t1/2, female dog plasma, single IV bolus 0.20 mg/kg, animal 61F): 1.55 h | half-life ([3]; iv, 0.2 mg/kg, t1/2, female dog plasma, single IV bolus 0.20 mg/kg, animal 723F): 1.41 h | Vd ([3]; iv, 0.2 mg/kg, volume of distribution at steady state (VSS), dogs, intravenous): 4.01 L/kg | AUC(0-inf) [3, 17]: 405 ng·h/mL | AUC(0-inf) [3, 18]: 414 ng·h/mL | AUC(0-inf) [3, 19]: 374 ng·h/mL | AUC(0-inf) [3, 20]: 414 ng·h/mL | AUC(0-inf) [3, 21]: 426 ng·h/mL | AUC(0-t) ([3]; po, 1 mg/kg, AUC0-t, female dog plasma, single oral gavage 1.00 mg/kg, Mean (N=3)): 387 ng·h/mL | AUC(0-t) ([3]; po, 1 mg/kg, AUC0-t, female dog plasma, single oral gavage 1.00 mg/kg, Median (N=3)): 399 ng·h/mL | AUC(0-t) ([3]; po, 1 mg/kg, AUC0-t, female dog plasma, single oral gavage 1.00 mg/kg, animal 61F): 399 ng·h/mL | AUC(0-t) ([3]; po, 1 mg/kg, AUC0-t, female dog plasma, single oral gavage 1.00 mg/kg, animal 723F): 404 ng·h/mL | Cmax ([3]; po, 1 mg/kg, Cmax, female dog plasma, single oral gavage 1.00 mg/kg, Mean (N=3)): 146 ng/mL | Cmax ([3]; po, 1 mg/kg, Cmax, female dog plasma, single oral gavage 1.00 mg/kg, Median (N=3)): 132 ng/mL | Cmax ([3]; po, 1 mg/kg, Cmax, female dog plasma, single oral gavage 1.00 mg/kg, animal 60F): 132 ng/mL | Cmax ([3]; po, 1 mg/kg, Cmax, female dog plasma, single oral gavage 1.00 mg/kg, animal 61F): 179 ng/mL | Cmax ([3]; po, 1 mg/kg, Cmax, female dog plasma, single oral gavage 1.00 mg/kg, animal 723F): 126 ng/mL | bioavailability ([3]; po, 1 mg/kg, F (Bioavailability), female dog plasma, single oral gavage 1.00 mg/kg, Mean (N=3)): 91.3% | bioavailability ([3]; po, 1 mg/kg, F (Bioavailability), female dog plasma, single oral gavage 1.00 mg/kg, Median (N=3)): 186% | bioavailability ([3]; po, 1 mg/kg, F (Bioavailability), female dog plasma, single oral gavage 1.00 mg/kg, animal 60F): 102% | bioavailability ([3]; po, 1 mg/kg, F (Bioavailability), female dog plasma, single oral gavage 1.00 mg/kg, animal 61F): 86.5% | bioavailability ([3]; po, 1 mg/kg, F (Bioavailability), female dog plasma, single oral gavage 1.00 mg/kg, animal 723F): 85.2% | Tmax [3, 17]: 0.5 h | Tmax [3, 18]: 0.5 h | Tmax [3, 19]: 0.5 h | Tmax [3, 20]: 0.5 h | Tmax [3, 21]: 0.5 h | half-life ([3]; po, 1 mg/kg, elimination half-life, dogs): 1.77 h | AUC(0-t) ([3]; po, 1 mg/kg, mean AUC0-t, female dog plasma, single oral (gavage) dose): 387 ng·h/mL | Cmax ([3]; po, 1 mg/kg, mean Cmax, female dog plasma, single oral (gavage) dose): 146 ng/mL | bioavailability ([3]; po, 1 mg/kg, mean oral bioavailability (%F), dogs, oral 1 mg/kg): 91.3% | half-life ([3]; po, 1 mg/kg, t1/2, female dog plasma, single oral gavage 1.00 mg/kg, Mean (N=3)): 1.77 h | half-life ([3]; po, 1 mg/kg, t1/2, female dog plasma, single oral gavage 1.00 mg/kg, Median (N=3)): 1.8 h | half-life ([3]; po, 1 mg/kg, t1/2, female dog plasma, single oral gavage 1.00 mg/kg, animal 60F): 1.82 h | half-life ([3]; po, 1 mg/kg, t1/2, female dog plasma, single oral gavage 1.00 mg/kg, animal 61F): 1.69 h | half-life ([3]; po, 1 mg/kg, t1/2, female dog plasma, single oral gavage 1.00 mg/kg, animal 723F): 1.8 h | stability of amorphous form on standing [4]: crystallized overnight to crystal polymorph pattern 2; also recorded: unstable upon standing
